{
  "source": "patent US6197774A",
  "about": "“Pyrimidine derivative” (Otsuka Pharmaceutical Co., Ltd., priority 1997, dated 2001)",
  "key": {"[1]": {"tested_on": "formation of TNF-α in cell strain RAW 264.7", "experiment": "Activity for inhibiting the formation of TNF-α in vitro (RAW 264.7 cells, ELISA)", "assay_type": "cell-based", "settings": "Mus musculus, RAW264.7, control 100, LPS 100 ng/ml, 24 hours, read-out: Ratio of formed amount of TNF-α", "description": "[Evaluation test of activity for inhibiting the formation of TNF-α in vitro]\nPyrimidine derivative obtained in Example 1 was used as test compound.\n(§1) Cell strain RAW 264.7 (ATCC) derived from the macrophage of mouse was placed on each one of the wells on a microplate having 24-wells so as to put the cells in an amount of 3×10^5 cells/U (well). The cells were incubated for 24 hours in a phenol red free-RPMI-1640 culture medium (mfd. by GIBCO) to which 10% of equine serum (mfd. by Bio Whittaker), 100 U/ml of penicillin (mfd. by Dainippon Pharmaceutical Co., Ltd.) and 100 μg/ml of streptomycin (mfd. by Dainippon Pharmaceutical Co., Ltd.) were added.\nNext, the equine serum was removed from the culture medium, and the reference culture medium as control was prepared by adding 2 mM of L-arginine (mfd. by Wako Pure Chemical Industries, Ltd.), 10 μM/ml of tetrahydrobiopterin (mfd. by ALEXIS) and 100 ng/ml of lipopolysaccharide (LPS)(mfd. by Sigma Chemical Co.) to a phenol red free-RPMI-1640 culture medium, so as to induce the formation of TNF-α.\nOn the other hand, the test culture medium, containing the test compound of Example 1 was prepared similarly as in the reference culture medium, except adding the test compound (1×10^-4, 1×10^-5 and 1×10^-6 M) dissolved in dimethyl sulfoxide (DMSO) at the same time of LPS-addition.\nThe concentration of TNF-α formed in the supernatant of each one of the culture media after 24 hour-incubation was measured by Factor-Test-X Mouse TNF-α ELISA Kit (mfd. by genzyme)."}, "[2]": {"tested_on": "formation of NO in cell strain RAW 264.7", "experiment": "Activity for inhibiting the formation of NO (LPS-stimulated RAW 264.7 cells, Griess reagent)", "assay_type": "cell-based", "settings": "Mus musculus, RAW264.7, 1 × 10^-6 M, LPS 100 ng/ml, 24 hours, read-out: Ratio of formed amount of NO (reference culture medium = 100)", "description": "[Evaluation test of activity for inhibiting the formation of NO]\nPharmacological tests of pyrimidine derivatives obtained in Examples 1, 12, 14, 19, 22, 24, 29 and 42 used as test compounds were conducted as follows.\nPreparation of culture media and method of cell culture were conducted in accordance with those described in J. Biol. Chem., Vol. 269, No. 1, pp. 711-715, (1994), and determination of formed amount of NO was conducted in accordance with the method described in Anal. Biochem., Vol. 126, pp. 131-138, (1982), respectively.\n(1) Cell Culture and Inducible Synthesis of NO in the Cells by Stimulation with Lipopolysaccharide (LPS)\nas §1, with “1×10^5” for “3×10^5”, “fetal bovine serum,” for “equine serum (mfd. by Bio Whittaker),”\nNext, the reference culture medium was prepared by adding 2 mM of L-arginine (mfd. by Wako Pure Chemical Industries, Ltd.), 10 μM/ml of tetrahydrobiopterin (mfd. by ALEXIS) and 100 ng/ml of lipopolysaccharide (LPS)(mfd. by Sigma Chemical Co.) to a phenol red free-RPMI-1640 culture medium. While, the reference culture medium without containing LPS was used as the blanc culture medium.\nOn the other hand, the test culture medium, containing the test compound was prepared by adding 0.2% of the test compounds dissolved in dimethyl sulfoxide (DMSO) to the reference culture medium to adjust the final concentration of the test compound to 1×10^-6 M.\nEach one of the blank culture medium, reference culture medium and test culture medium containing the test compound was added, respectively to the well on the micro-plate where the above-mentioned cell strain RAW 264.7 was placed, and was incubated for 24 hours.\n(2) Measurement of the Amount of Formed NO\nQuantitative measurement of NO cannot be made directly, due to its unstability. Therefore, the amount of NO is measured indirectly, thus by forming nitrous acid ion (hereunder referred to as NO2^-) which is stable product derived from NO by use of Griess reagent [consisting of 1% of sulfanylamide and 0.1% of sulfuric acid solution containing 0.1% N-(1-naphthyl)ethylenediamine dihydrochloride], and measure the amount of NO2^-.\nInto the supernatant of each one of the culture media was admixed with the same amount of Griess reagent respectively, and subjected to reaction at room temperature for 10 minutes, then the optical absorbance at 540 nm of the thus reacted culture medium was measured. While, the optical absorbance of sodium nitrite solution diluted with the culture medium was referred to as the standard value, and the amount of NO2^- formed in each one of these incubated culture media was measured. The amounts of NO2^- formed in the reference culture medium and the test culture medium were corrected by using the value of formed amount of NO2^- in the blanc culture medium.\nOn the basis of that the ratio of amounts of NO2^- formed in the reference culture medium and that of formed in the test culture medium is corresponding to the ratio of amount of NO formed in the reference culture medium and that of formed in the test culture medium. Thus the amount of NO2^- formed in the reference culture medium is referred to as the value of 100, and the value of amount of NO2^- formed in the test culture medium is referred to as amount of NO formed in the test culture medium."}},
  "data": [
    {"smiles": "COCc1cc(=O)n2ncc(-c3ccc(Sc4ccccc4)cc3)c2[nH]1", "note": "[Example 1, 4,7-dihydro-5-methoxymethyl-7-oxo-3-(4-phenylthiophenyl)pyrazolo[1,5-a]pyrimidine]", "values": [
      {"measurement": "activity at 100 µM", "setting": "[1]; 1 × 10^-4 M", "value": 5.1, "unit": "%"},
      {"measurement": "activity at 10 µM", "setting": "[1]; 1 × 10^-5 M", "value": 59.9, "unit": "%"},
      {"measurement": "activity at 1 µM", "setting": "[1]; 1 × 10^-6 M", "value": 120, "unit": "%"},
      {"measurement": "activity at 1 µM", "setting": "[2]", "value": 56, "unit": "%"}
    ]}
  ]
}
